Experimental data taken from patent US4209439A, “Stabilization of vinyl resins” (priority 1977, dated 1980).

How the values were obtained:
[1] = polarographic study of the oxidation potential (Example 30); type: physicochemical; conditions: acetonitrile, lithium perchlorate; calomel electrode; in V (unit assumed)
From the text: 261. Polarographic study of the oxidation potential […]
reference electrode: a calomel electrode which contains, as junction liquid, a saturated solution of anhydrous lithium perchlorate working electrode: rotating electrode of vitreous carbon (2500 r.p.m.) counter-electrode: platinum. acetonitrile, having a water content smaller than 0.1% and not presenting any polarographic waves between -2.5 volts and +2.5 volts.
0.1 M solution of lithium perchlorate in acetonitrile, treated and preserved on a molecular screen of 4 A. […]
exploration amplitude: 0 to 2 V exploration speed: 10 mV/sec.

[2] = polarographic oxidation potential (Example 31); type: physicochemical; conditions: 0.5 m.mole/liter; methanol/acetic acid; 35° C.
Procedure: platinum counter-electrode and calomel electrode with filling by a saturated aqueous solution of lithium chloride.
The measurements were carried out in the following solvent:
90 parts of an 0.1 M solution of lithium perchlorate in methanol, 10 parts of a 0.1 M solution of perchloric acid in acetic acid. square voltage superimposed with constant pulses of +10 millivolts, initial potential: 500 millivolts, scanning voltage: 1000 millivolts in the anode direction, oxidation at the vitreous carbon electrode (speed of rotation: 2000 r.p.m.)

[3] = migration of stabiliser from PVC bottles into water at 50° C.; type: physicochemical; conditions: water 50° C.
Procedure: 2.2--Study of the migration
The migration or the extractability of the stabiliser from the PVC compound under the effect of various liquids (and particularly water) stored in a plastic container is of essential importance for the use of these stabilisers in the field of food packagings.
(§1) The technique as regards extraction was the following: using the formula which is given below, a batch of bottles (volume 1 liter, diameter 70 mm, height.perspectiveto.230 mm) was prepared, the said bottles being filled with a liquid simulating the foods. […] The migration of the stabiliser was judged by dosage of the pyridine present in the extractum, using the dosage method which is later described. This pyridine obviously represents the oxidised form of the extracted 1,4-dihydropyridine.
The investigation was particularly developed for water at 50° C. over a period of 2 months, because it represents the important problem regarding the packaging of mineral waters.
Formula for the manufacture of bottles
The S L 2016 is a solution of zinc 2-ethyl hexanoate in a mixture of aromatic hydrocarbons boiling from 158° to 184° C.
(§2) The stabilisers are measured out in the form of their oxidation product (pyridine).
(§3) The oxidation is made quantitative by adding a few drops of iodine to the solution. The latter is then extracted with chloroform and the chloroform is evaporated to a small residual volume. The solution obtained is then subjected to thin-film chromatography, by comparison with solutions of known concentration of the desired pyridines.
(§4) The sensitivity threshold of this technique is 5 μg/liter.

[4] = migration of stabiliser from PVC into solutions or solvents simulating foods at 50° C.; type: physicochemical
Procedure: as §1, §2, §3, §4
For justifying the possibility of using the dihydropyridines (I) having a radical R comprising from 9 to 22 carbon atoms in applications concerned with food packaging, other than those applications relating to mineral waters, the extractability of the dihydropyridines by several solutions or solvents having the following composition, by weight, was investigated:
(a) water-sodium chloride: 97-3
(b) water-saccharose: 90-10
(c) water-sodium chloride-acetic acid: 98.5-0.5-1
(d) water-citric acid (solution at pH=5): 98-2
(e) water-acetic acid: 97-3
(f) water-acetic acid: 90-10
(h) water-acetic acid: 50-50

[5] = sublimation at 160° C. for 6 hours under nitrogen; type: physicochemical; conditions: for % of sublimed product: 160° C., 6 hours, nitrogen
Procedure: A test sample of about 130 mg of the product to be investigated is introduced into a 100 cc beaker. The latter is placed in a 250 cc reactor. The temperature is kept at 160° C. by means of a thermostatically controlled oil bath for 6 hours, the atmosphere of the reactor being inert (nitrogen) in order to avoid the oxidation of the 1,4-dihydropyridine into pyridine, which is more sublimable.
For each dihydropyridine derivative which is investigated, the result is expressed as a percentage of sublimed product relatively to the quantity being used.

[6] = stabilisation of plasticised polyvinyl chloride resins: mixing at 180° C., pressing at 170° C.; conditions: for Colour stability / Thermal stability: 180° C.
Procedure: Sheets of polyvinyl chloride, previously mixed for 5 minutes at 180° C., were pressed for 5 minutes at 170° C., and the colour stability and the heat stability after mixing, and then the coloration of the sheets after pressing, were observed.
As adjuvants, as well as the stabiliser to be tested, the resin in question contains wax E, dioctyl phthalate, barium stearate and cadmium stearate, in the following proportions: […]

[7] = thermostability of rigid vinyl chloride-vinylidene chloride copolymer, ventilated oven at 210° C.; conditions: 0.15 p.c.r.; Example 29
Procedure: Rigid copolymer formula vinyl chloride-vinylidene chloride copolymer.
Passage through a ventilated oven at 210° C.
Passage through ventilated oven at 210° C.
Passage in ventilated oven at 210° C.

[8] = Water/C2H5OH (50:50), 0.3, 1 month
[9] = Water/C2H5OH (85:15), 0.3, 1 month
[10] = Water/C2H5OH (85:15), 0.3, 2 months
[11] = Water/CH3COOH (50:50), 0.3, 1 month
[12] = Water/CH3COOH (90:10), 0.3, 1 month
[13] = Water/CH3COOH (90:10), 0.3, 2 months
[14] = Water/CH3COOH (97:3), 0.3, 1 month
[15] = Water/CH3COOH (97:3), 0.3, 2 months
[16] = Water/NaCl/CH3COOH (98,5:0,5:1), 0.3, 1 month
[17] = Water/NaCl/CH3COOH (98,5:0,5:1), 0.3, 2 months
[18] = Water/Sacchrose (90:10), 0.3, 1 month
[19] = Water/Sacchrose (90:10), 0.3, 2 months
[20] = Water/citric acid (98:2), pH 5, 0.3, 1 month
[21] = Water/citric acid (98:2), pH 5, 0.3, 2 months
[22] = resin 5: 0.1, Ba 0.375, Cd 0.375
[23] = resin 7: 0.05, Ba 0.375, Cd 0.15
[24] = resin 9: 0.05, Ba 0.375, Cd 0.05

| SMILES | Oxidation potential [1] | Oxidation potential [2] [millivolts] | Migration ([3]; 0.15 pct, 1 month) [µg/L] | Migration ([3]; 0.15 pct, 2 months) [µg/L] | Migration ([3]; 0.15 pct, 10 days) [µg/L] | Migration ([3]; 0.15 pct, 20 days) [µg/L] | Migration ([3]; 0.30 pct, 1 month) [µg/L] | Migration ([3]; 0.30 pct, 2 months) [µg/L] | Migration ([3]; 0.30 pct, 10 days) [µg/L] | Migration ([3]; 0.30 pct, 20 days) [µg/L] | Migration ([4]; H2O/NaCl (97:3), 0.3, 1 month) [µg/L] | Migration ([4]; H2O/NaCl (97:3), 0.3, 2 months) [µg/L] | Migration ([4]; Heptane, 0.3 pcr, after 36 h) [µg/L] | Migration ([4]; Heptane, 0.3 pcr, after 84 h) [µg/L] | Migration [4, 8] [µg/L] | Migration [4, 9] [µg/L] | Migration [4, 10] [µg/L] | Migration [4, 11] [µg/L] | Migration [4, 12] [µg/L] | % of sublimed product [5] [%] | also measured |
| --- | --- | --- | --- | --- | --- | --- | --- | --- | --- | --- | --- | --- | --- | --- | --- | --- | --- | --- | --- | --- | --- |
| Cc1cc(C(C)(C)C)c(O)c(C(C)(C)C)c1 [BHT, Di-tert.-2,6-butyl-4-methyl phenol, reference compound] | 1.11 ± 0.02 | 1163 | – | – | – | – | – | – | – | – | – | – | – | – | – | – | – | – | – | – | – |
| COC(=O)C1=C(C)NC(C)=C(C(=O)OC)C1 [L.28504, 2,6-Dimethyl-3,5-dicarbomethoxy-1,4-dihydropyridine] | 0.74 ± 0.01 | 850 | 70 | 80 | 15 | 40 | 120 | 120 | 70 | 100 | 100 | 120 | 300 | 390 | 250 | 150 | 180 | 150 | 120 | 34.2 | Migration ([4]; Water/CH3COOH (50:50), 0.3, 2 months): 200 µg/L; Migration [4, 13]: 140 µg/L; Migration [4, 14]: 90 µg/L; Migration [4, 15]: 120 µg/L; Migration [4, 16]: 110 µg/L; Migration [4, 17]: 120 µg/L; Migration [4, 18]: 100 µg/L; Migration [4, 19]: 100 µg/L; Migration [4, 20]: 110 µg/L; Migration [4, 21]: 130 µg/L; sublimation ([5]; of the quantity of product being used): 34%; Colour stability [6, 22]: 50 min; Thermal stability [6, 22]: 50 min; Colour stability [6, 23]: 45 min; Thermal stability [6, 23]: 55 min; Colour stability [6, 24]: 35 min; Thermal stability [6, 24]: 50 min; basic shade and thermal stability ([6]; words): substantially improves the basic shade and clearly increases the thermal stability; thermostabilisation of copolymer versus 2-phenyl indole [7]: better result than 0.3 p.c.r. of 2-phenyl indole |
| CCCCCCCCCCCCOC(=O)C1=C(C)NC(C)=C(C(=O)OCCCCCCCCCCCC)C1 [L.28507, 2,6-Dimethyl-3,5-dicarbododecyloxy-1,4-dihydropyridine] | – | 783 | < 5 | < 5 | < 5 | < 5 | < 5 | < 5 | < 5 | < 5 | < 5 | < 5 | 120 | 150 | 50 | < 5 | < 5 | 25 | < 5 | 1.7 | Migration [4, 13]: < 5 µg/L; Migration [4, 14]: < 5 µg/L; Migration [4, 15]: < 5 µg/L; Migration [4, 16]: < 5 µg/L; Migration [4, 17]: < 5 µg/L; Migration [4, 18]: < 5 µg/L; Migration [4, 19]: < 5 µg/L; Migration [4, 20]: < 5 µg/L; Migration [4, 21]: < 5 µg/L |
| CCCCCCCCCCCCCCOC(=O)C1=C(C)NC(C)=C(C(=O)OCCCCCCCCCCCCCC)C1 [L.28590, 2,6-Dimethyl-3,5-dicarbotetradecyloxy-1,4-dihydropyridine] | – | 732 | < 5 | < 5 | < 5 | < 5 | < 5 | < 5 | < 5 | < 5 | < 5 | < 5 | – | – | – | – | – | – | – | 0.1 | – |
